According to BindingDB's records for doi:10.1016/j.bmcl.2009.01.068 (Methylgene, 2009):

Legend:
[1] = Inhibition of c-Met-mediated scattering in HGF-stimulated human DU145 cells
[2] = Inhibition of c-Met-mediated migration in HGF-stimulated human A549 cells by wound healing assay

IC50 [1]: 80 nM | IC50 [2]: 240 nM
Structure (SMILES): CCn1cnc(-c2cc3nccc(Oc4ccc(NC(=O)N5CCN(c6ccc(F)cc6)C5=O)cc4F)c3s2)c1 [N-(4-(2-(1-ethyl-1H-imidazol-4-yl)thieno[3,2-b]pyridin-7-yloxy)-3-fluorophenyl)-3-(4-fluorophenyl)-2-oxoimidazolidine-1-carboxamide]
